Assay results from article PMC3183052, “Immunoprotectivity of HLA-A2 CTL Peptides Derived from Respiratory Syncytial Virus Fusion Protein in HLA-A2 Transgenic Mouse” (PLoS ONE, 2011).

Key:
[1] = test system: splenocytes from HLA-A*0201 transgenic C57BL/6 mice; experiment: IL-2 ELISPOT of splenocytes restimulated with peptide; format: cell-based, mouse
Outline: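 HLA-A*0201 transgenic C57BL/6 mice primed and boosted intranasally 20 days apart with 1×10^7 pfu rAd-F0 or 1×10^4 live RSV B1; splenocytes taken 10 days post-boost. Splenocytes restimulated 48 h at 37°C with 2 µg individual RSV F 9-mer peptides; spots counted, expressed per 5×10^5 splenocytes.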

splenocytic CD4+ T cells = experiment: CFSE proliferation of CD4+ T cells after in vitro peptide restimulation; format: cell-based, mouse; conditions: mice immunized s.c. twice with 50 µg peptide in IFA; splenocytes restimulated with 10 µg/mL peptide for 8 days
Protocol: To screen the immunodominance of epitopic peptide in the induction of RSV-F specific Th1/Th2 expression, HLA-A*0201 transgenic C57BL/6 mice were anesthetized with isoflurane and immunized with 1×10^7 pfu/50 µL of rAd-F0 or rAd-LacZ or 1×10^4 live RSV B1 via the intranasal (i.n.) route. Twenty days later, the mice were given booster immunization i.n. with the same dose. After 10 days of boost, mice were sacrificed and splenocytes were isolated for the cytokine ELISPOT assay. […] Mice body weight was monitored daily.
The splenocytes were isolated, labeled with 5-(6)-carboxyfluorescein diacetate succinimidyl ester (CFSE) (Sigma-Aldrich) and stimulated in vitro with 10 µg/mL of the synthetic peptides for 4 or 8 days. Proliferation of splenocytic CD4^+ and CD8^+ T cells was analyzed by flow cytometry (BD FACSCalibur) using PE-Cy5-labeled specific antibody against CD4 (eBioscience) or CD8 (eBioscience), respectively. Cell division index (CDI), a ratio of CFSE-diluted CD4^+ or CD8^+ T cells stimulated by peptide to CFSE-diluted unstimulated CD4^+ or CD8^+ T cells, was calculated as shown below; [drawing 1] […]
Figure 2 Epitope-specific CD4^+ and CD8^+ T-cell activation in peptide-immunized HLA-A*0201 transgenic mice. […] Proliferation of CD4^+ (A) or CD8^+ (B) lymphocytes in response to the different CD8 epitopes was analyzed by flow cytometry using anti-CD4 or CD8 antibodies conjugated with PE-Cy5. […]

YMLTNSELL [peptide 14, HLA-A*0201-restricted 9-mer synthetic peptide from F protein of RSV-B1 strain]
IL-2 ELISPOT, RSV ([1]; splenocytes of HLA-Tg B6 mice primed and boosted i.n. with 10^4 pfu RSV-B1, restimulated with 2 µg peptide, representative of two experiments, five mice per group): 34.5 cytokine-secreting cells per 5×10^5 splenocytes | IL-2 ELISPOT, rAd-F0 ([1]; splenocytes of HLA-Tg B6 mice primed and boosted i.n. with 10^7 pfu rAd-F0, restimulated with 2 µg peptide, representative of two experiments, five mice per group): 200 cytokine-secreting cells per 5×10^5 splenocytes | IL-2 level in restimulated splenocytes (ELISPOT, text grading) ([1]; splenocytes of rAd-F0- or RSV B1-primed and boosted HLA-Tg B6 mice, high = over 100 spots, moderate = over 50 spots): over 100 spots | proliferation of CD4+ T cells (cell division index) (splenocytic CD4+ T cells): insignificant proliferation
